We go through four compounds from EP3807270B1, “NOVEL HETEROARYL HETEROCYCLYL COMPOUNDS FOR THE TREATMENT OF AUTOIMMUNE DISEASE” (F. Hoffmann-La Roche AG, priority 2018, dated 2019).

pIC50: −log10 of the molar value.

For this data set, the target named is T1, hERG channel (Homo sapiens, UniProt Q12809).
T1 construct: expressed in transfected cells; host or cells: CHO (Chinese hamster ovary)
Kind of data set: hERG channel inhibition assay (patch-clamp, CHO hERG cells). The conditions noted are these: for pIC50 / IC20: CHO hERG cells, whole-cell patch-clamp; for IC20: human, CHO cells stably expressing hERG; for hERG IC20 / TLR8 IC50 / hERG IC20 / TLR7 IC50 / hERG IC20 / TLR9 IC50: safety ratio; for hERG IC20 / TLR7 IC50: TLR7 IC50 of ER compounds from Table 1; for hERG IC20 / TLR9 IC50: TLR9 IC50 of ER compounds from Table 1. The format is cell-based. How it is done:
The hERG K^+ channels were cloned in humans and stably expressed in a CHO (Chinese hamster ovary) cell line. CHOhERG cells were used for patch-clamp (voltage-clamp, whole-cell) experiments. Cells were stimulated by a voltage pattern to activate hERG channels and conduct IKhERG currents (rapid delayed outward rectifier potassium current of the hERG channel). After the cells were stabilized for a few minutes, the amplitude and kinetics of IKhERG were recorded at a stimulation frequency of 0.1 Hz (6 bpm). Thereafter, the test compound was added to the preparation at increasing concentrations. For each concentration, an attempt was made to reach a steady-state effect, usually, this was achieved within 3-10 min at which time the next highest concentration was applied. The amplitude and kinetics of IKhERG are recorded in each concentration of the drug which were compared to the control values (taken as 100%). (references: Redfern WS, Carlsson L, Davis AS, Lynch WG, MacKenzie I, Palethorpe S, Siegl PK, Strang I, Sullivan AT, Wallis R, Camm AJ, Hammond TG. 2003; Relationships between preclinical cardiac electrophysiology, clinical QT interval prolongation and torsade de pointes for a broad range of drugs: evidence for a provisional safety margin in drug development. Cardiovasc. Res. 58:32-45, Sanguinetti MC, Tristani-Firouzi M. 2006; hERG potassium channels and cardiac arrhythmia. Nature 440:463-469, Webster R, Leishman D, Walker D. 2002; Towards a drug concentration effect relationship for QT prolongation and torsades de pointes. Curr. Opin. Drug Discov. Devel. 5:116-26).
Table 3. hERG and safety ratio results

T1 sequence (Q12809 whole entry): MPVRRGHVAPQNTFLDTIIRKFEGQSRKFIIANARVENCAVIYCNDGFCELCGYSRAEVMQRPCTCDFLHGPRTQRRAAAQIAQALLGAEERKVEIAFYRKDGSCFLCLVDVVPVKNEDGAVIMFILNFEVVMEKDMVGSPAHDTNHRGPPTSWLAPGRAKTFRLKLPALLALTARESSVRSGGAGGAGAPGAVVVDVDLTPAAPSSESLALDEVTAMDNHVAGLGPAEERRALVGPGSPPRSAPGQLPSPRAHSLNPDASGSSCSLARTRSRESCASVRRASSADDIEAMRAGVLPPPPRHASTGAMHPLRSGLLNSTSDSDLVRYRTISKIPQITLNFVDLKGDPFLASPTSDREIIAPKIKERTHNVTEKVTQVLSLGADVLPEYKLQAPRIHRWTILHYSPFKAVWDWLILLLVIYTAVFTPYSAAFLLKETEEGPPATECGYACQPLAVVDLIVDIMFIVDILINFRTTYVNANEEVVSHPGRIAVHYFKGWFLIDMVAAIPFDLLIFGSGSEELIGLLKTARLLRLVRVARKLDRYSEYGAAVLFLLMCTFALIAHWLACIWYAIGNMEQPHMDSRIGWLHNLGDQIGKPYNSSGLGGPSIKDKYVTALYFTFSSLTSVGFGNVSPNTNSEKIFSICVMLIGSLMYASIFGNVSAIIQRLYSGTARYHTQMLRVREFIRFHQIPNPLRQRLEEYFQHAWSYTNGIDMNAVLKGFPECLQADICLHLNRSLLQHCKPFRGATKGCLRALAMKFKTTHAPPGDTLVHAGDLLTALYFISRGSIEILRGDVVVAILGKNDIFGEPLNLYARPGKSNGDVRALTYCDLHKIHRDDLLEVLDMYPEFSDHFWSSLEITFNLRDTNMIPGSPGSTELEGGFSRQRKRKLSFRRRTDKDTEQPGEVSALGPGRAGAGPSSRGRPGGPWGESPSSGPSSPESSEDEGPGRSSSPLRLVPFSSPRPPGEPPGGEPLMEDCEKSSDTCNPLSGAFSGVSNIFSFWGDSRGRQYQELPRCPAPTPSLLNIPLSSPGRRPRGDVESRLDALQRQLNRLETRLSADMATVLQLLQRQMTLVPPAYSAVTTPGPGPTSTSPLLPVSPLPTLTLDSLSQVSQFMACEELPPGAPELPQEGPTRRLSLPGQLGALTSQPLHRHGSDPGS

For `C[C@@H]1CN(c2ccc(C#N)c3ncccc23)C[C@H](CN2CC3(C2)CN(c2cnc4c(n2)CCNC4)CCO3)O1` [Example 50, 5-[(2R,6S)-2-methyl-6-[[8-(5,6,7,8-tetrahydropyrido[3,4-b]pyrazin-2-yl)-5-oxa-2,8-diazaspiro [3.5]nonan-2-yl]methyl]morpholin-4-yl] quinoline-8-carbonitrile], the pIC50 was less than 4.70, the IC20 is greater than 10000 nM, the “hERG IC20 / TLR8 IC50” value is listed as greater than 3125.0 and the “hERG IC20 / TLR7 IC50” value is on record as greater than 2702.7. The “hERG IC20 / TLR9 IC50” value is given as greater than 144.9.

Take `C[C@@H]1CN(c2ccc(C#N)c3ncccc23)C[C@H](CN2CCN(c3ccc4c(n3)CNCC4)CC2)O1` [Example 69, 5-[(2R,6S)-2-methyl-6-[[4-(5,6,7,8-tetrahydro-1,7-naphthyridin-2-yl)piperazin-1-yl]methyl]morpholin-4-yl]quinoline-8-carbonitrile]: the pIC50 is less than 4.70, the IC20 turned out to be 8650 nM, the “hERG IC20 / TLR8 IC50” value is listed as 1879.8 and the “hERG IC20 / TLR7 IC50” value turned out to be 697.4. The “hERG IC20 / TLR9 IC50” value was 104.3.

Turning to `COc1ccc(N2CCN(C[C@H]3CN(c4ccc(C#N)c5ncccc45)C[C@@H](C)O3)CC2)cc1` [Example R1, 5-[(2S,6R)-2-[[4-(4-methoxyphenyl)piperazin-1-yl]methyl]-6-methyl-morpholin-4-yl]quinoline-8-carbonitrile, reference compound], the pIC50 is 5.56, the 20% effect level (IC20) was put at 879 nM, the “hERG IC20 / TLR8 IC50” value is 6.2 and the “hERG IC20 / TLR7 IC50” value is on record as 9.3. Further, the “hERG IC20 / TLR9 IC50” value is given as 0.1.

Take `C[C@@H]1CN(c2ccc(C#N)c3ncccc23)C[C@H](CN2CCN(c3ccc(Cl)cc3)CC2)O1` [Example R2, 5-[(2S,6R)-2-[[4-(4-chlorophenyl)piperazin-1-yl]methyl]-6-methyl-morpholin-4-yl]quinoline-8-carbonitrile, reference compound]: the pIC50 is 6.11, the IC20 was found to be 280 nM, the “hERG IC20 / TLR8 IC50” value is given as 0.8 and the “hERG IC20 / TLR7 IC50” value is 1.3. The “hERG IC20 / TLR9 IC50” value was found to be 0.04.
